Source: patent US20030138946A1
Values joined by “and” are separate entries in the source; they are usually repeats but may differ in a detail not shown here. Equal values may be shown once. Ends that are not written are not given here.

Tests used:
[1] = tested on: CD8^+ 2C lymph node cells; test: IL-2 production by CD8+ 2C lymph node cells (CTLL indicator line 3HTdR); assay type: cell-based, mouse; settings: peptide 10 μM
Method: (§1) Using a standard tissue culture system (Cai, Z. and Sprent, J. (1994) J. Exp. Med. 179: 2005-2015), doses of 5×10^4 purified CD8^+ 2C lymph node (LN) cells were cultured at 37° C. with doses of 3×10^5 transfected fly cells ±peptides (10 μM final concentration). Peptides were synthesized by R. W. Johnson Pharmaceutical Research Institute (Sykulev, et al. (1994) Immunity 1: 15-22. Proliferative responses were measured by adding ^3HTdR (1 μCi/well) 8 hours prior to harvest. IL-2 production was measured by removing supernatants from the cultures at 48 hours and adding 50 μl supernatant to an IL-2 responsive indicator cell line (CTLL); proliferation of the indicator line was measured by addition of ^3HTdR. The data shown in Table 2 are the means of triplicate cultures. The transfected Drosophila S2 cells die rapidly at 37° C. and fail to incorporate ^3HTdR at this temperature.

2C+ T-cells [2] = assay type: cell-based, mouse
2C+ T-cells [3] = test: Enrichment of 2C+ T-cells from a 1/99 mixture with C57BL/6 CD8+ cells (1B2 staining, flow cytofluorometry); assay type: cell-based, mouse
Method: 2C+ T-cells were mixed with total CD8^+ cells from C57BL/6 mice at a 1/99 ratio and cells were cultured with immobilized L^d and anti-CD28 antibody in the presence of peptide QL9. IL-2 was added at day 2 of culture, and subsequently every other day. Cell activation and proliferation was noted, as evidenced by the formation of clumps, presence of enlarged cells that progressively spread in the well. At day 12 of culture, cells were harvested and percentage of cells expressing the 2C T-cell receptor was assessed by staining with the anticlonotypic antibody 1B2 and analysis by flow cytofluorometry: 43% of the cells cultured initially in the presence of peptide QL9 were 2C+, (FIG. 22) whereas 49% of the cells expressed 2C after stimulation with peptide p2Ca (FIG. 23), and 22% with peptide SL9 (FIG. 24). […] Enrichment was observed even with SL9, a peptide that makes a low affinity complex with the 2C T-cell receptor. This method thus can specifically activate and enrich a small subpopulation of antigen specific T-cells out of a heterogenous mixture of T-cells.

CD8^+ 2C cells [4] = test: Dose-response of day 3 proliferation of CD8+ 2C cells to peptides on transfected Drosophila APC; assay type: cell-based, mouse
Method: Responses to p2Ca (above) and QL9 (below) were measured by culturing 5×10^4 purified CD8^+ 2C cells with 2×10^5 Drosophila cells in the presence or absence of the indicated concentrations of peptides for 3 days. [^3H] TdR was added during the last 8 hours of culture; rIL-2 was added at a final concentration of 20 units/ml. The data are the mean of triplicate cultures. When supplemented with exogenous IL-2, however, both peptides stimulated significant proliferative responses at high doses (10 μM). The proliferative responses elicited by QL9 were far stronger than for p2Ca (note the large difference between the scales of x-axes of the upper and the lower panel).
Dose-response relationships for proliferation on day 3 elicited by Drosophila cells transfected with L^d.B7.1CAM and presenting p2Ca peptide were compared to those elicited by Drosophila cells transfected with L^d.B7, L^d.ICAM or L^d.B7.1CAM presenting QL9 peptide. Drosophila APC (2×10^5 cells) were cultured with 5×10^4 CD8^+ 2C cells for three days in the presence or absence of peptides. [^3H] TdR was added during the last 8 hours of culture; no IL-2 was added to the cultures.

[5] = tested on: CD8^+ 2C lymph node cells; test: Primary proliferative response of CD8+ 2C lymph node cells to peptides presented by transfected fly cells (3HTdR); assay type: cell-based, mouse; settings: peptide 10 μM
Method: as §1

CD8^+ 2C cells [6] = test: CD69 and CD25 expression on CD8+ 2C cells stimulated with transfected Drosophila cells plus peptide; assay type: cell-based, mouse; settings: Drosophila cells expressing L^d alone; peptide 10 μM, 12 hours
Method: TCR stimulation elicited a complex pattern of intracellular events which lead to early up-regulation of CD69 and CD25 (IL-2 receptor or IL-2R) on the cell surface. These changes are apparent within a few hours of stimulation and are followed by cytokine synthesis and cell proliferation. Drosophila cells were transfected with genes for L^d, L^d and B7.1 (L^d.B7), L^d and ICAM-1 (L^d.ICAM) or L^d, B7.1 and ICAM-1 (L^d.B7.1CAM). […] Purified CD8^+ 2C cells were incubated with various Drosophila cells plus a peptide (either p2Ca or QL9, 10 μM) in bulk (2 ml) culture for 12 hours and then stained for CD69 or CD25. Either p2Ca or QL9 presented by Drosophila cells transfected with L^d.B7, L^d.ICAM or L^d.B7.1CAM were effective in stimulating the up-regulation of CD69 and CD25.

[7] = target: L^d molecules complexed with QL9 peptide, on the cell surface (mouse) (UniProt P01887)
Sequence of L^d molecules complexed with QL9 peptide, on the cell surface (mouse) (P01897 25-362, one chain of several): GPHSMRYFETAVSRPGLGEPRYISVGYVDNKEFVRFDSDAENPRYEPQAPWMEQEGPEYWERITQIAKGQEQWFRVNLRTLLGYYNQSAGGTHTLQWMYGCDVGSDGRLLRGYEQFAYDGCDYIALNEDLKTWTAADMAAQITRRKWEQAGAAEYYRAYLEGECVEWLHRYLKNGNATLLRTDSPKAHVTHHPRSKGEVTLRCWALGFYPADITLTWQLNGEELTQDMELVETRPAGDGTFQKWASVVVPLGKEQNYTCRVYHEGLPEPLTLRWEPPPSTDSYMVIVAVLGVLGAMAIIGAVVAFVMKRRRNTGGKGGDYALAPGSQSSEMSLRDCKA

[8] = target: recombinant biotinylated L^d immobilized on an avidin-coated support, with QL9 peptide (mouse) (UniProt P01897)
Sequence of recombinant biotinylated L^d immobilized on an avidin-coated support, with QL9 peptide (mouse) (P01897 25-309): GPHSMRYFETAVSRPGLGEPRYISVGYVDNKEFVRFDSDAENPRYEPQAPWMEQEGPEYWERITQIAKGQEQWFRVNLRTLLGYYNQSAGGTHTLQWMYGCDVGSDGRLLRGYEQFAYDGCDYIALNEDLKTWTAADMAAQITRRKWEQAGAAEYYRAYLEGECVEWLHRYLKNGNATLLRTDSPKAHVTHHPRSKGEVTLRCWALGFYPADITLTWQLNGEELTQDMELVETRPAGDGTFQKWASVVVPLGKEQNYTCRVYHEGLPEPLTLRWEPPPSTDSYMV

[9] = target: L^d molecules complexed with QL9 peptide, on the cell surface (mouse) (UniProt P01887); test: cell-based or functional assay
[10] = target: L^d molecules complexed with p2Ca peptide, on transfected Drosophila S2 cells (mouse) (UniProt P01887); test: cell-based or functional assay
Sequence of L^d molecules complexed with p2Ca peptide, on transfected Drosophila S2 cells (mouse) (P01897 25-362, one chain of several): as the sequence (P01897 25-362, one chain of several) above

B3/CD8 T-cell hybridoma = test: Antigen presentation assay with B3/CD8 T-cell hybridoma (IL-2 via CTLL 3H thymidine); assay type: cell-based, murine; settings: peptide added to culture medium or protein osmotically loaded
Method: Osmotic loading of SC2 and 3T3 cells with ovalbumin protein was carried out as described by Moore, et al., Cell 54: 777-785 (1988). The assay procedure is as follows. In a 96-well dish, 1×10^5 Drosophila cells (with or without peptide/protein loaded) or 3T3 cells were cocultured with 1×10^5 B3/CD8 T-cell hybridoma cells in 200 μl of RPMI media supplemented with 10% fetal bovine serum. After 24 hours of incubation, 100 μl of the supernatant from these cultures was added to 100 μl of RPMI containing 5,000 CTLL cells. The cells were cocultured for 24 hours at 37° C. when 1 uCi of ^3H thymidine (Amersham) was added. After a further incubation of 15 hours at 37° C., the incorporation of radiolabel into the CTLL cells was determined by scintillation counting.
Assays conducted with murine MHC also verified that the insect cells are capable of loading peptide onto the Class I molecules. Cells expressing as few as 200-500 MHC molecules containing a particular antigen can be detected by a T-cell. […] Upon antigenic stimulation, B3/CD8 produces IL-2, measured by ^3H thymidine incorporation in IL-2-dependent T-cell line CTLL (Gillis, et al., J. Immunol. 120: 2027 91978)). Thus, by measuring the amount of IL-2 produced, one can assay for T-cell recognition. […]

[11] = target: T1, K^bsol (soluble H-2 K^b with murine β-2 microglobulin) (Mus musculus, UniProt P01901); assay type: binding
T1 construct: The cDNAs encoding K^b α1α2α3 domains (274 residues) and murine β-2 microglobulin (99 residues); made in house; host or cells: Drosophila S2/M3 cells, purified from culture supernatant
T1 sequence (P01901 22-295): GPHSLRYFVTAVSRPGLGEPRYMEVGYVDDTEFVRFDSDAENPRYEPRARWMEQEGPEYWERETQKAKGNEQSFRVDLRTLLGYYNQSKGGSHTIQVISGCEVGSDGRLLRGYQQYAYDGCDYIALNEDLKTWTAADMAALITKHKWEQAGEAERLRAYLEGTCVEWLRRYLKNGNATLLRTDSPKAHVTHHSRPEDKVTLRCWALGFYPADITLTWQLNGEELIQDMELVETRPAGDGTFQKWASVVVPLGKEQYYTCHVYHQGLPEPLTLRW
T1 sequence (P01887 21-119 partner): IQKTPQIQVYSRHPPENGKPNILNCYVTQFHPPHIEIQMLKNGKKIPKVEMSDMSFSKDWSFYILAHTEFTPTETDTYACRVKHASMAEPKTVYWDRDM

HLA B27 = test: Peptide-induced thermostabilization of HLA B27 on Drosophila cells (W6/32 cytofluorimetry); assay type: cell-based, human
Method: Twenty-four hours prior to FACS analysis, CuSO4 is added to the stably transfected S2 cells (3-4×10^6 cells/ml) to a final concentration of 1 mM, thereby “switching on” expression from the transfected genes. Cells are plated out in 24-well cluster dishes (2 ml per well). Eight hours prior to FACS analysis, the CuSO4 medium is replaced with fresh medium (1 ml) with or without peptide at a concentration of 50 μg/ml. 37° C. temperature challenges are carried out by transferring the dishes onto a flat surface in a 37° C. room at various time intervals prior to harvesting the cells for analysis.
To analyze surface expression of Class I MHC on the S2 cells, aliquots of cells (5×10^5) are transferred into tubes on ice, collected by centrifugation (1,000×g for 4 minutes), resuspended in 3 ml of PBS/1% BSA, 0.02% sodium azide, collected by centrifugation and resuspended in PBS/BSA (0.5 ml) containing the appropriate primary antibody (ascites fluids Y3, 28:14:8S, 30.5.7, W6/32, diluted 1:200). Rabbit antisera are diluted 1:500 and B22.293 hybridoma supernatant is used directly. After a one hour incubation on ice, cells are washed twice in 3 ml of PBS/BSA and resuspended in 0.5 ml of PBS/BSA containing FITC labeled secondary antibody (Cappell, Durham, N.C.) and 1 ng/ml propidium iodide. […] Samples are then analyzed by FACS 440 (Becton Dickinson). […]

[12] = target: T2, soluble H-2 K^b (K^bsol): heterodimer of truncated K^b heavy chain and murine β-2 microglobulin, purified from Drosophila cells (murine), P01901
T2 chain 1: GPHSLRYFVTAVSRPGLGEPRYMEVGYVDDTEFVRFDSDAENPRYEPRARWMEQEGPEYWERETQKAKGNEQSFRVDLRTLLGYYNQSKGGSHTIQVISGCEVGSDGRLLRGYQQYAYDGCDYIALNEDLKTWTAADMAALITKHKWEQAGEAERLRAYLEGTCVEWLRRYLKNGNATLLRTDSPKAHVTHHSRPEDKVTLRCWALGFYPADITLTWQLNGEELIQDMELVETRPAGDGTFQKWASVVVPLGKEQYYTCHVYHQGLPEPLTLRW
T2 chain 2: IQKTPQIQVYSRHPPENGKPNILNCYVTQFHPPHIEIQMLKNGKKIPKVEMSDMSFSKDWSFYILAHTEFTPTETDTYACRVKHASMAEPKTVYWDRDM

LSPFPFDL [p2Ca]
IL-2 Production (Day 2) ^3HTdR incorporation, fly cells expressing L^d ([1]; APC L^d): 0.2 cpm × 10^3 | IL-2 Production (Day 2) ^3HTdR incorporation, fly cells expressing L^d + B7.1 ([1]; APC L^d + B7.1): 0.2 cpm × 10^3 | IL-2 Production (Day 2) ^3HTdR incorporation, fly cells expressing L^d + B7.1 + ICAM-1 ([1]; APC L^d + B7.1 + ICAM-1): 64.6 cpm × 10^3 | IL-2 Production (Day 2) ^3HTdR incorporation, fly cells expressing L^d + ICAM-1 ([1]; APC L^d + ICAM-1): 0.1 cpm × 10^3 | IL-2 Production (Day 2) ^3HTdR incorporation, L^d + B7.1 combined with L^d + ICAM-1 ([1]; mixture of two APC lines): 0.3 cpm × 10^3 | activation (mitogenesis) of 2C+ T-cells (2C+ T-cells [2]): able to activate | enrichment in specific T-cells after 12 days (2C+ T-cells [3]; start 1/99): 49 times | cells expressing the 2C T-cell receptor (2C+) at day 12 (2C+ T-cells [3]; start 1/99 2C+/total CD8+, immobilized L^d and anti-CD28, IL-2 from day 2): 49% | proliferation of 2C CD8+ cells (CD8^+ 2C cells [4]; Drosophila cells with L^d alone, no exogenous lymphokines): failed | peptide concentration required for optimal day 3 proliferative response (CD8^+ 2C cells [4]; L^d.B7.1CAM APC, no IL-2): 10 µM | Proliferation (Day 3) ^3HTdR incorporation, fly cells expressing L^d ([5]; APC L^d): 0.2 cpm × 10^3 | Proliferation (Day 3) ^3HTdR incorporation, fly cells expressing L^d + B7.1 ([5]; APC L^d + B7.1): 0.3 cpm × 10^3 | Proliferation (Day 3) ^3HTdR incorporation, fly cells expressing L^d + B7.1 + ICAM-1 ([5]; APC L^d + B7.1 + ICAM-1): 142.0 cpm × 10^3 | Proliferation (Day 3) ^3HTdR incorporation, fly cells expressing L^d + ICAM-1 ([5]; APC L^d + ICAM-1): 1.5 cpm × 10^3 | Proliferation (Day 3) ^3HTdR incorporation, L^d + B7.1 combined with L^d + ICAM-1 ([5]; mixture of two APC lines): 1.5 cpm × 10^3 | induction of CD69 and CD25 expression (CD8^+ 2C cells [6]): barely detectable

2C T-cell receptor on T-cells of 2C TCR transgenic mice
percent of the lymphocytes included in rosettes [7]: 30% and 40% | percent of the lymphocytes included in rosettes [8]: 30% and 40% | Proliferation (Day 3), ^3HTdR incorporation; fly cells expressing L^d [9]: 200 cpm | Proliferation (Day 3), ^3HTdR incorporation; fly cells expressing L^d + B7.1 [9]: 60900 cpm | Proliferation (Day 3), ^3HTdR incorporation; fly cells expressing L^d + ICAM-1 [9]: 73900 cpm | Proliferation (Day 3), ^3HTdR incorporation; fly cells expressing L^d [10]: 200 cpm | Proliferation (Day 3), ^3HTdR incorporation; fly cells expressing L^d + B7.1 [10]: 300 cpm | Proliferation (Day 3), ^3HTdR incorporation; fly cells expressing L^d + ICAM-1 [10]: 1500 cpm

EQLESIINFEKLTEWTSSNVMEER [OVA-24]
T-cell recognition (IL-2 response) of K^b Drosophila cells (B3/CD8 T-cell hybridoma): responded well | affinity lower than that of OVA-8 [11]: more than 10,000 fold

ovalbumin protein: ovalbumin (Sigma Chem. Co.) osmotically loaded into the cells (EQLESIINFEKLTEWTSSNVMEER)
T-cell recognition (IL-2 response) of K^b Drosophila cells (B3/CD8 T-cell hybridoma): no recognition

FRIGCRHSR [HIV Vpr peptide]
thermostabilization of HLA B27 surface expression (HLA B27): stabilizes B27

ILKEPVHGV [HIV POL peptide]
thermostabilization of HLA B27 surface expression (HLA B27): not B27

RGYVYQGL (modifications not checked) [[^125I]VSV-8 (radioiodinated VSV-8 peptide)]
percent of the total labeled peptide able to bind [12]: 65%
